One series addresses FGFR4 (Homo sapiens, UniProt P22455). Description: In vitro activity inhibition test for kinase FGFR4.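 Also: caliper mobility shift assay of FGFR4 kinase activity, compounds tested as 10-point 4-fold dilution series with 0.5% DMSO final.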
The target in the next series is FGFR2 (Homo sapiens, UniProt P21802). As to the kind of experiment: In vitro activity inhibition test for kinase FGFR2. It counts as biochemical. Conditions: kinase assay, 25° C.; read-out: Inhibition of separase IC50 (nM) FGFR2.
The next series deals with FGFR3 (Homo sapiens, UniProt P22607). Description: In vitro activity inhibition test for kinase FGFR3.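 Also: FGFR3 kinase activity read by Caliper mobility shift assay, compounds run as 10-point 4-fold dilution series, final DMSO 0.5%.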
A further series addresses FGFR1 (Homo sapiens, UniProt P11362). Description: In vitro activity inhibition test for kinase FGFR1.
The target in the next series is T1, hERG potassium channel (Homo sapiens, UniProt Q12809).
T1 construct: host or cells: HEK293
Description: Determination of potassium channel blockade of hERG (whole-cell patch clamp, Qpatch). It counts as cell-based. Conditions: HEK293 cells stably expressing hERG, tail current, 24° C. As to the method:
Example 59: Determination of Potassium Channel Blockade of hERG
The experimental methods are in follows:
extracellular fluid: 140 mM NaCl, 3.5 mM KCl, 1 mM MgCl2, 2 mM CaCl2, 10 mM D-glucose, 10 mM HEPES, 1.25 mM NaH2PO4, pH=7.40
ISE Internal Solution: 20 mM KCl, 115 mM K-aspartate, 1 mM MgCl2, 5 mM EGTA, 10 mM HEPES, 2 mM Na2-ATP, pH=7.2
Cell culture: HEK293 cell line with stable expression of hERG potassium channel was used, and hERG potassium channel cells were purchased from Creacell (catalog number: A-0320). It was cultured in DMEM medium containing 10 fetal bovine serum and 0.8 mg/mL G418 at 37° C. and a carbon dioxide concentration of 5%. Take out the old medium and wash once with PBS, then add 2 mL of TrypLE™ Express solution and incubate at 37° C. for about 1 min. When the cell detaches from the bottom of the dish, add approximately 5 mL of complete medium pre-warmed at 37° C. Gently pipette the cell suspension with a pipette to detach the aggregated cells. […]
Each drug concentration is set for two administrations for at least 5 minutes. The tested compound and the compound-free external fluid acts on the cells sequentially from low to high concentration, and each cell uses the current detected in the compound-free exo-liquid as its own control group, and the detection of the two cells is repeated independently. […]
(In general: Block of hERG is tested as a sign of cardiac risk.)

The subject of series [1] is human gastric cancer cells (SNU-16). As to the kind of experiment: Proliferation inhibition of human gastric cancer cells SNU-16 (CellTiter-Glo). It counts as cell-based. To be noted: 72 h, SNU-16, 3 days. The method, then: (§1) Using the CellTiter-Glo<TM>Live Cell Assay Kit, The inhibitory effect of the test compound on the proliferation of human gastric cancer cells (SNU-16) and FGFR3 high expression and FGFR3 fusion of FGFR3-TACC3 fused human bladder cancer cells (RT4) was determined. Among them, RT4 medium is added with fetal bovine serum and McCoy's 5A medium with a final concentration of 10%.
(§2) Test steps: SNU-16 and RT4 cells that have reached 80% cell confluency were digested by trypsin, centrifuged and re-suspended for counting, and 3500 and 6000 cells/mL of SNU-16 and RT4 cell suspensions were prepared with medium, respectively. Add a 96-well cell culture plate (90 μL/well) and place in a cell culture incubator containing 5% CO2 at 37° C. […] The diluted compound stock solution was further diluted with SNU-16 and RT4 medium and the diluted mixture was transferred to the corresponding cell plates, respectively. […] Mix and centrifuge and then place in a cell culture incubator containing 5% CO2 for 3 days at 37° C. Take out the 96-well cell culture plate and add CellTiterGlo (CTG, Chemiluminescent Cell Viability Assay) reagent (100 L/well. Mix and centrifuge, and then incubate for 10 min at room temperature. After gentle shaking, the absorbance at 450 nm wavelength was determined on the SpectraMax M5 Reader, and the absorbance at 650 nm was used as a reference (i.e., 450 nm absorbance −650 nm absorbance) to calculate the suppression.

In series [2] the test system is human bladder cancer cells (RT4). Description: Proliferation inhibition of human bladder cancer cells RT4 (CellTiter-Glo). It counts as cell-based. Conditions: Homo sapiens, RT-4, 72 h, RT4, 3 days. As to the method:
as §1, §2
In general terms: In ATP-based viability assays light output follows the ATP content of the culture.

Another series has as its system Hep3B cells. Description: Human hepatoma cell Hep3B survival test (CellTiter-Glo). It counts as cell-based. To be noted: Homo sapiens, treated 72 hours, read-out: inhibitory activity on Hep3B cell proliferation IC50. As to the method: The Hep3B cell line of human liver cancer is derived from ATCC. Cells are supplemented with McCoy's 5A medium and additionally added fetal bovine serum (IOFBS). Cells are kept in the medium at 37° C., humidity at 95%, and carbon dioxide at 500. Hep3B cells were seeded in 96-well plates at a density of 3500 cells per well with a cell suspension volume of 90 μL per well and cultured at 37° C. in a cell culture incubator containing 500 CO2. […] The cells were then placed in a 37° C. incubator and treated with compounds for 72 hours.

pIC50: −log10 of the molar value. Where only a bound is given, the exact number is not on record here.

From US20240109896A1, “FGFR KINASE INHIBITOR AND USE THEREOF” (YA THERAPEUTICS INC, priority 2021, published 2024) come the findings set out here.

Sequence of FGFR3 (P22607 23-806): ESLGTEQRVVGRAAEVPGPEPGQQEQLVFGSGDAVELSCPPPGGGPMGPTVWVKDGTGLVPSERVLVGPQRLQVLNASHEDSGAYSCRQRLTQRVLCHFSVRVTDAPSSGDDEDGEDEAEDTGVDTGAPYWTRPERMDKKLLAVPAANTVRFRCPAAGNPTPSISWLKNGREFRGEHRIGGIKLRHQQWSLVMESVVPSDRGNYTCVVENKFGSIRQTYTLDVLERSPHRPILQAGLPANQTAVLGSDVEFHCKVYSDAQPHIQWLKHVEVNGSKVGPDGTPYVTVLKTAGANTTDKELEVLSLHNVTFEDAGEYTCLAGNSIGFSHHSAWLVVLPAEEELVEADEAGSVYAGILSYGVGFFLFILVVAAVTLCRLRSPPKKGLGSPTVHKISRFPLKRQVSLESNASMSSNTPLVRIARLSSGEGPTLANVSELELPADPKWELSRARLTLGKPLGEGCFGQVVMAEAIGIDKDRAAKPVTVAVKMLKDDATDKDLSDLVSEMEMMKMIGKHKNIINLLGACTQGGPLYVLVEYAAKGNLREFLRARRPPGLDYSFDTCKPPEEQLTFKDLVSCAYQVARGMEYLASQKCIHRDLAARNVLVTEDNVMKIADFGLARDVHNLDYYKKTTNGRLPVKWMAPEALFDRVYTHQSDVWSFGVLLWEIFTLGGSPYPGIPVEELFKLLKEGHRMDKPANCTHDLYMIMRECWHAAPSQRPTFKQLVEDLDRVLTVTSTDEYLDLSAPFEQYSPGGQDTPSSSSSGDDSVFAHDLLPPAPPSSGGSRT
Sequence of FGFR4 (P22455 22-802): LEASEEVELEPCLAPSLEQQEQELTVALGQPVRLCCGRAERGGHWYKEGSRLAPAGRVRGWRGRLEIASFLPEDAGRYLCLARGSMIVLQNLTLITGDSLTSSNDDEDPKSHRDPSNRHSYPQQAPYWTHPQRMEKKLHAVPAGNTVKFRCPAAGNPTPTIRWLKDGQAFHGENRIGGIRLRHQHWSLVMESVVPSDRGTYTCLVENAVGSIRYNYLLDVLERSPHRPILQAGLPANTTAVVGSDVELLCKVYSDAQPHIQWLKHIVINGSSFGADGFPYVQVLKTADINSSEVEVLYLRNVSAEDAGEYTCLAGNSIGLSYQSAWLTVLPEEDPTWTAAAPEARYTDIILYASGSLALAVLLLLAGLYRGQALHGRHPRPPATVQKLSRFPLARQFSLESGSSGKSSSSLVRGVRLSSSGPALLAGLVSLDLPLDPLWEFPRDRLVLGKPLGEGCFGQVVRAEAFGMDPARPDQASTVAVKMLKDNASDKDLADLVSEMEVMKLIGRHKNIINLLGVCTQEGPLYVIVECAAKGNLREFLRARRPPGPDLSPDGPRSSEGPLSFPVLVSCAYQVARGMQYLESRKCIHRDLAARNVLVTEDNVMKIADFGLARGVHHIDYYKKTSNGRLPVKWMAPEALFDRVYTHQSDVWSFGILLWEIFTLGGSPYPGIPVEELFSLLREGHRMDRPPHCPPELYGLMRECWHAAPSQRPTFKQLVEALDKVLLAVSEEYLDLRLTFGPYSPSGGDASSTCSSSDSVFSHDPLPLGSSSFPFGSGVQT
Sequence of FGFR2 (P21802 22-821): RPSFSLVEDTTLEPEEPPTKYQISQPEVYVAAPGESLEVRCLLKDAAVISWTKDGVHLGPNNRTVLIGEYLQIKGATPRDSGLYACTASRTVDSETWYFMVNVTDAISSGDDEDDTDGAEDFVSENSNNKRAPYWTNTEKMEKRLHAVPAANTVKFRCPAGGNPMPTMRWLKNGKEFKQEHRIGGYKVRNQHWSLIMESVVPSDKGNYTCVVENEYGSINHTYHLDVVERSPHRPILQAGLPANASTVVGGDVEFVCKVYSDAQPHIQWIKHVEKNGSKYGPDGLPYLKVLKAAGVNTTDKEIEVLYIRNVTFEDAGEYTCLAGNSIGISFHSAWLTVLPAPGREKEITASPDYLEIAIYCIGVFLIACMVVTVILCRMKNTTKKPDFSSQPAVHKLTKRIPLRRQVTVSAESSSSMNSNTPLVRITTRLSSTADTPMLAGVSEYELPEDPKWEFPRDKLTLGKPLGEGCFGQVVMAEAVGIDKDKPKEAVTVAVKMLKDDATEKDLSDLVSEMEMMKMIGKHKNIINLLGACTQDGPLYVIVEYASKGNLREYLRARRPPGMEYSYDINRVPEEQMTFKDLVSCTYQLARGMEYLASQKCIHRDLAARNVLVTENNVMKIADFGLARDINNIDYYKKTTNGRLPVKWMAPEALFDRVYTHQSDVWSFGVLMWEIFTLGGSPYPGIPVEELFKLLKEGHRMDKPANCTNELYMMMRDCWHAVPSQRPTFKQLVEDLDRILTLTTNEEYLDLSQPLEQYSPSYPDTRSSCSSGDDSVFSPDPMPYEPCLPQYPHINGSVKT
Sequence of FGFR1 (P11362 22-822): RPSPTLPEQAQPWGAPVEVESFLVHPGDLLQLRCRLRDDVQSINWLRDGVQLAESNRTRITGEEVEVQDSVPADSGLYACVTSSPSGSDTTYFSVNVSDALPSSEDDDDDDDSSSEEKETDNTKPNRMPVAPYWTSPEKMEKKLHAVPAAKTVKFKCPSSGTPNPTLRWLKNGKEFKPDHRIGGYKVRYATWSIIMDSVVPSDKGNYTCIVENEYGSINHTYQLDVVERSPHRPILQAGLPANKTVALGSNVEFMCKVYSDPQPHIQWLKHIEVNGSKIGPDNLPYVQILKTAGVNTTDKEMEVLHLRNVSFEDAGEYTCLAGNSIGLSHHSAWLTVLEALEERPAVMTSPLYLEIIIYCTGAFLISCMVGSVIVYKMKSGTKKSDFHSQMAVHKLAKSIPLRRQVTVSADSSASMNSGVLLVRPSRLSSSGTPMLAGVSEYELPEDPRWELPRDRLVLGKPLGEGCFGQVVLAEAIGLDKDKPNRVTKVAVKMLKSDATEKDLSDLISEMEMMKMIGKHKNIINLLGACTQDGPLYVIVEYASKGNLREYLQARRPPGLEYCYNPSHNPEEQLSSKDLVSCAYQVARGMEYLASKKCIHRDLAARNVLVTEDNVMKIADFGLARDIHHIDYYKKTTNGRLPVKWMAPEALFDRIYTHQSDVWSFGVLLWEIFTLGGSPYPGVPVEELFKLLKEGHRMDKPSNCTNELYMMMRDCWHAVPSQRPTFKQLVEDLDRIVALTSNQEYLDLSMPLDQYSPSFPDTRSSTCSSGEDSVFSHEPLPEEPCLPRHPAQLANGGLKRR
T1 sequence (Q12809 whole entry): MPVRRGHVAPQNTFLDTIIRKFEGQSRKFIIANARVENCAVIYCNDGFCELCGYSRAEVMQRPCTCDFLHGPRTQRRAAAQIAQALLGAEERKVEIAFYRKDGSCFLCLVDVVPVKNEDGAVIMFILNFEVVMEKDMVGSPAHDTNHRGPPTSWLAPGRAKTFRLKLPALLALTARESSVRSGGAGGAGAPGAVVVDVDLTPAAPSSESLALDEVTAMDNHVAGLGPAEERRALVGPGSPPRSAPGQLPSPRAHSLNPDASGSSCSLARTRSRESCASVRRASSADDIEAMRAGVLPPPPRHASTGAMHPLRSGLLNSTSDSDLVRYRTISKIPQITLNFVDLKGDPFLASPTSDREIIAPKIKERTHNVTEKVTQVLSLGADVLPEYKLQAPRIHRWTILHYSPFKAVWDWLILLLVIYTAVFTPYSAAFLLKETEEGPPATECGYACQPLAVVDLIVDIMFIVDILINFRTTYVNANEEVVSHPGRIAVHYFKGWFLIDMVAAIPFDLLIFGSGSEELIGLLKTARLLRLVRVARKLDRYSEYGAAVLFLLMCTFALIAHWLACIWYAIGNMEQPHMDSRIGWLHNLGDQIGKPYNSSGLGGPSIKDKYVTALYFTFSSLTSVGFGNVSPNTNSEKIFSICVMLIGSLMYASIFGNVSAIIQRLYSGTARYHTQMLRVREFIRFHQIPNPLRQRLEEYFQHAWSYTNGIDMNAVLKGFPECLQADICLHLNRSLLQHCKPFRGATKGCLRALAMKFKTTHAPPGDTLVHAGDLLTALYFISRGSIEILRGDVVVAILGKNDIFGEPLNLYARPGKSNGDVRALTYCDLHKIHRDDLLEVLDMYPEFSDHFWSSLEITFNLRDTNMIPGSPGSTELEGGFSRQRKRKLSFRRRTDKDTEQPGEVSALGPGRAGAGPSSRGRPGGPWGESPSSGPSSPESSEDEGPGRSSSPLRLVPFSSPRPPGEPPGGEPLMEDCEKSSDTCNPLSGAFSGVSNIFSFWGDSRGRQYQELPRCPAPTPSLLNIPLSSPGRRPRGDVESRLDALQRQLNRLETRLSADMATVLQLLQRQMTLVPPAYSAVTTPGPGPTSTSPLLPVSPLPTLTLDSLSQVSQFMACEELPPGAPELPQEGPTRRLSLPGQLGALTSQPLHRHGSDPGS
Description for FGFR1: (§3) In Vitro Activity Inhibition Test for Kinases FGFR1, FGFR2, FGFR3 and FGFR4
(§4) The activity of FGFR1, FGFR2, FGFR3 and FGFR4 protein kinases was determined by Caliper mobility shift assay. Perform a 4-fold gradient dilution from a working concentration of 0.2 mM in DMSO, diluting 10 concentrations. Add 2 μL of compound to 78 μL of 1× compound buffer. There were 10 points each for the negative control and the positive control. Shake the board on the rocker for 20 min. […] The final concentration of DMSO was 0.5%.
Description for FGFR3: as §3, §4
Description for FGFR4: as §3, §4

Usually IC50 stands for the point on the concentration scale where inhibition reaches its midpoint. For `C=CC(=O)N1CC[C@H](n2nc(C#Cc3c(F)c(OC)cc(OC)c3F)c3c(N)n[nH]c(=O)c32)C1` [Compound 28, (S)-1-(1-acryloylpyrrolidin-3-yl)-4-amino-3-((2,6-difluoro-3,5-dimethoxyphenyl)ethynyl)-1,6-dihydro-7H-pyrazolo[3,4-d]pyridazin-7-one], the pIC50 against FGFR4 is more than 8.00; against FGFR3 it was more than 8.00; on FGFR1 it was more than 8.00; in series [1], 10.60; in series [2] it was 8.89. Also, at FGFR2, the IC50 was less than 10 nM. Further, on hERG potassium channel, the “inhibition effect on the hERG channel” value is “weak or no inhibition effect”.
As for `C=CC(=O)N1CC[C@H](n2cc(-c3cc4cc(C)cc(OC)c4s3)c3c(N)n[nH]c(=O)c32)C1` [Compound 38, (S)-1-(1-acryloylpyrrolidin-3-yl)-4-amino-3-(7-methoxy-5-methylbenzo[b]thiophen-2-yl)-1,6-dihydro-7H-pyrrolo[2,3-d]pyridazin-7-one], the pIC50 against FGFR4 was more than 8.00; against FGFR3 it was more than 8.00; against FGFR1, more than 8.00; with Hep3B cells it was more than 8.00; in series [1], more than 10.82; in series [2] it was 8.47. Besides, the IC50 on FGFR2 is less than 10 nM. The “inhibition effect on the hERG channel” value at hERG potassium channel is listed as “moderate inhibitory effect”.
